Results taken from patent US20110098257A1, “DERIVATIVES OF 4- OR 5-AMINOSALICYLIC ACID” (ANTIBE THERAPEUTICS INC., priority 2005, published 2011).
Structures can show the parent of a compound that is named as a salt.

Columns and labels:
[1] = system: visceral pain in response to colorectal distension; experiment: Rat model of visceral pain perception (colorectal distension, AWR score); type: in vivo, Rats (male, Wistar); conditions: for pain perception: equimolar doses: mesalamine 50, Compound XXXV 130, ADT-OH 80, Compound XXVII 100, 4-HTB 50 mg/kg; for pain perception / pain perception score: vs vehicle-treated group; for pain perception score after glibenclamide pretreatment / pain perception score: 0.8 mL colorectal distention, 100 mg/kg, FIG. 17; for pain perception score after glibenclamide pretreatment: glibenclamide 10 mg/kg i.p. 30 min before
Method: A rat model of visceral pain perception, a pre-clinical model of irritable bowel syndrome, was used in the following example. Rats (male, Wistar, 200-250 g, obtained from Charles River, Monza, Italy), were housed in plastic cages and maintained under controlled conditions with 12-hours light/dark cycle with lights on at 7.00 AM. Tap water and standard laboratory chow were freely available. Before experiments, rats were individually trained by spending 2-3 hours per day in a plexiglass cage for 2-3 days. It allowed them to adjust to a movement-restriction environment. Food was withheld for 12 hours before colorectal distension (CRD) recording were performed. Experiments were performed in awake rats and were conducted in a blind manner in that the observer was not aware of the identity of drug administered to each animal.
In the testing day, rats were sedated with ether inhalation and a 2 cm long latex balloon was inserted intrarectally 2 cm from the anal verge and fixed at the base of the tail. The balloon was connected via a double-barreled cannula to a pressure transducer to continuously monitoring the rectal pressure by a computer (PowerLab PC, A.D. Instruments, Milford, Mass., USA) and to a syringe for inflation/deflation of the balloon. The rats were then housed in a small cage (20×8×8 cm) on an elevated Plexiglas™ platform and allowed to wake up and adapt for 1 hour. After recovery from sedation, animals underwent the CRD procedure and behavioral responses were tested. The night before the experiments, the balloons were inflated and left overnight so the latex stretched and the balloons became compliant.
CRD of 20 seconds, performed every 5 minutes, was applied in increment of 0.4 ml starting from 0.4 ml up to 1.6 ml water. To achieve an accurate measurement of the colonic parameters and perception, the distensions were repeated twice for each intensity and data for each animal were averaged for analysis. Each animal underwent a double set of CRD. Twenty minutes after the first sequence of CRD (0.4 mL-1.6 ml water), drugs were administered intraperitoneally (i.p.) and a second set of CRD was performed. Behavioral responses during the first and the second set of CRD were assessed and compared.
Behavioral response to CRD was assessed by measuring the abdominal withdrawal reflex (AWR) using a semiquantitative score (1).
The effects of mesalamine and Compound XXXV on colonic compliance and sensitivity were determined using a total of 8 fasting rats. To investigate whether the administration of mesalamine and Compound XXXV could revert pain induced by CRD, after the first sequence of CRD, […], after which a second set of CRD was repeated.
To determine the effect of mesalamine or Compound XXXV on colonic smooth muscle, the compliance of the colo-rectum during CRD was obtained from intracolo-rectal volume and pressure and expressed as mL/mmHg.
All data are presented as the mean±SEM, with sample sizes of 4 rats/group; statistical comparison of paired data was performed by the Wilcoxon signed rank test. An associated probability (p value) of less that 5% was considered significant.
A rat model of visceral pain perception as described above was used to compare pain perception scores for both Compound XXXV and Compound XXVII with or without glibenclamide, an inhibitor of ATP-sensitive K^+ (KATP) channels.

[2] = system: leukocyte adherence in mesenteric post-capillary venules; experiment: Leukocyte adherence to the vascular endothelium in vivo (intravital microscopy, aspirin-induced); design: species or system Rats
Method: Leukocyte adherence was studied using intravital microscopy, as described in detail previously (Wallace et al., (1993) Am. J. Physiol. 265: 993-998, incorporated hereto by reference). Rats were anesthetized with pentobarbital sodium (60 mg/kg i.p.) and cautery incisions were made along the abdominal region. A tracheotomy was performed to facilitate breathing. The rats were placed in a supine position, and a segment of the mesentery was exteriorized through the abdominal incision. The mesentery was carefully placed over an optically clear viewing pedestal that allowed for trans-illumination of a 2-cm^2 segment of tissue. All exposed tissue was covered with saline-soaked gauze to minimize dehydration. The temperature of the pedestal was kept at 37° C. and the mesentery was superfused with warmed bicarbonate-buffered saline (pH 7.4). An intravital microscope (Nikon L25/0.35) and a ×10 eyepiece were used to observe the mesenteric microcirculation. Post-capillary venules with diameters ranging from 20 to 40 μm were selected for the study. A video camera mounted on the microscope (Panasonic™ digital 5000) projected the image onto a monitor, and the images were recorded for playback analysis using a videocassette recorder. Images of the mesenteric microcirculation were recorded 5 minutes prior to aspirin administration (baseline), at the time of aspirin administration (time 0-5) and every 15 minutes for 60 minutes. Leukocyte adherence was blindly quantified from videotaped images of the vessels made over 5-min periods as the number of leukocytes that remained stationary along the vessel wall for 30 s or more (expressed per 100 μm venule length). Groups of rats (at least 5 in each) were pretreated with Compound XXXV (130 mg/kg), Compound XXVII (100 mg/kg), mesalamine (50 mg/kg), or vehicle 60 min prior to aspirin (or vehicle) administration. These drugs were given intragastrically. In some experiments, rats were treated with glibenclamide (10 mg/kg i.p.) or vehicle 30 min prior to administration of these compounds.

[3] = system: PE (1 μM) precontracted rings of thoracic aorta; experiment: Vasorelaxant effect on PE precontracted thoracic aorta rings; design: species or system CD-1 mice; conditions: cumulative concentration-response 10 nM-3 mM, endothelium present, vs vehicle; FIG. 22
Method: CD-1 mice were sacrificed and thoracic aorta was rapidly dissected and cleaned from fat and connective tissue. […] Changes in isometric tension were recorded with PowerLab™ data acquisition system (Ugo Basile, Italy). […] Rings were initially stretched until a resting tension of 1.5 g was reached and allowed to equilibrate for at least 40 minutes during which tension was adjusted, when necessary, to 1.5 g and bathing solution was periodically changed.
Vehicle represents buffer but no compound. Curves to tested compounds were constructed in presence of endothelium.
Data obtained are shown in FIG. 22 and are expressed as mean±SEM. The level of statistical significance was determined by 2-way analysis of variance (ANOVA) followed by Bonferroni's test for multiple comparison, using the GraphPad™ software.

[4] = system: mice having TNBS-induced colitis; experiment: TNBS-induced colitis in mice (disease activity score, colonic MPO activity); type: in vivo, Balb/c mice
Method: A standard experimental animal model of colitis induced by intracolonic administration of 2,4,6-trinitrobenzene sulfonic acid (TNBS) to mice is used in the following example. A detailed description of this model has been published (Santucci et al. (2003) Gastroenterology 124:1381-94) and is incorporated herein by reference. Briefly, 6-8 week old Balb/c mice were given TNBS intracolonically at a dose of 1.5 mg in 0.1 mL of 30% ethanol. The mice were randomized to the various treatment groups (n=6 per group). Beginning one hour later and continuing every 12 h for 5 days, the mice were treated orally with vehicle (1% carboxymethylcellulose (CMC)), 5-ASA (mesalamine) (25, 50 or 75 mg/kg) or with equimolar doses of 2-hydroxy-5-amino-benzoic acid 4-(thioxo-5H-[1,2]dithiol-3-yl)-phenyl ester hydrochloride (Compound XXXV) (130 mg/kg), or with […] (100 mg/kg), 50% (66 mg/kg) and 25% (33 mg/kg) of that dose. The mice were evaluated (blindly) on the final day of the study for the presence of diarrhea and fecal occult blood, and their body weights were measured. […] After sacrifice, a sample of the colon was excised for measurement of myeloperoxidase (MPO) activity, as a marker of granulocyte infiltration. All results were compared to those obtained with healthy mice as well.
FIGS. 3 and 4 show the Disease Activity Index and MPO activity, respectively, using the same experimental animal model of colitis as described above, in which Compound XXXV (130 mg/kg) was compared to equimolar doses of its two constituents, mesalamine (50 mg/kg) and 5-p-hydroxyphenyl-[…] (ADT-OH) (80 mg/kg), and a mixture of mesalamine (50 mg/kg) and ADT-OH (80 mg/kg). *p<0.05 versus the vehicle-treated group. Each group consisted of at least 5 rats.
FIGS. 6 and 7 show the Disease Activity Index and MPO, respectively, using the same experimental animal model of colitis as described above, in which Compound XXVII (100 mg/kg) was compared to equimolar doses of its two constituents, mesalamine (50 mg/kg) and 4-hydroxythiobenzamide (4-HTB) (50 mg/kg), mesalamine alone (50 mg/kg) and 4-HTB alone (50 mg/kg). *p<0.05 versus the vehicle-treated group. Each group consisted of at least 5 rats.
The same model was used as described above. In this example, the effects of mesalamine (50 mg/kg) were compared to those of equimolar doses of Compound XXXV. In addition to measuring the severity of colitis by measuring disease activity score and MPO activity, tissues were processed for measurement of a number of genes for inflammatory cytokines and other mediators.

[5] = after patients have taken the usual doses; Dig. Dis. Sci. 1989; 34: 573-578; cited from earlier work

For `Nc1ccc(O)c(C(=O)Oc2ccc(-c3cc(=S)ss3)cc2)c1` (as salt: hydrochloride) [Compound XXXV, 5-Amino-2-hydroxy-benzoic acid 4-(5-thioxo-5H-[1,2]dithiol-3-yl)-phenyl ester], which melting point is on record?
Its melting point is 93 to 95 °C.

Which pain perception [1] does the source give for `Oc1ccc(-c2cc(=S)ss2)cc1` [ADT-OH, 5-p-hydroxyphenyl-1,2-dithione-3-thione, reference compound] here?
Its pain perception is “Only Compound XXXV and Compound XXVII significantly reduced pain perception”.

For `CC(=O)Oc1ccccc1C(=O)O` [Aspirin, aspirin, reference compound], which “leukocyte adherence after intragastric aspirin” value ([2]; vs baseline period / vehicle+vehicle group, FIG. 19) is on record?
The value was “markedly increased leukocyte adherence”.

Which results are given for `NC(=S)c1ccc(O)cc1` [Compound 4-HTB, 4-hydroxythiobenzamide, reference compound]?
vasorelaxant effect (% relaxation) [3]: significant vasorelaxant effects, which were concentration dependent; pain perception [1]: Only Compound XXXV and Compound XXVII significantly reduced pain perception

Which melting point does the source give for `NC(=S)c1ccc(OC(=O)c2cc(N)ccc2O)cc1` [Compound XXVII, 5-Amino-2-hydroxy-benzoic acid 4-thiocarbamoyl-phenyl ester] here?
Its melting point is 193 to 195 °C.

And the “Disease Activity Index” value ([4]; Compound XXVII 100 mg/kg vs mesalamine 50 mg/kg, 4-HTB 50 mg/kg and their mixture, FIG. 5)?
Its value is “almost three times as effective as either mesalamine alone, 4-HTB alone or a mixture of mesalamine and 4-HTB”.

And the “MPO activity (granulocyte infiltration)” value ([4]; Compound XXVII 100 mg/kg, FIG. 6)?
The value was “significantly reduced inflammation”.

And the “pain perception score after glibenclamide pretreatment” value [1]?
Its value is “reversed by pretreatment with glibenclamide”.

What about the pain perception score [1] of the same compound?
The pain perception score was “significantly reduced the pain perception”.

And the pain perception [1]?
Its pain perception is “significantly reduced pain perception”.

What about the “aspirin-induced leukocyte adherence, final time period” value ([2]; minutes 60-65, Compound XXXV 130 mg/kg, Compound XXVII 100 mg/kg, FIG. 20) of the same compound?
Its value is “suppress aspirin-induced leukocyte adherence”.

What about the “aspirin-induced leukocyte adherence, final time period, with glibenclamide pretreatment” value ([2]; minutes 60-65, glibenclamide 10 mg/kg i.p., FIG. 20) of the same compound?
The value was “glibenclamide pretreatment to reverse this inhibitor effect”.

With `COc1ccc(Cl)cc1C(=O)NCCc1ccc(S(=O)(=O)NC(=O)NC2CCCCC2)cc1` [Glibenclamide, glibenclamide, reference compound] as the compound, how does the “leukocyte adherence, glibenclamide alone” value ([2]; glibenclamide 10 mg/kg i.p., no aspirin, FIG. 19) read?
The value was “did not affect leukocyte adherence”.

What about the “aspirin-induced increase in leukocyte adherence” value ([2]; pretreatment: Compound XXXV 130 mg/kg or mesalamine 50 mg/kg intragastrically 60 min prior to aspirin, glibenclamide 10 mg/kg i.p., FIG. 19) of the same compound?
Its value is “did not affect the magnitude of aspirin-induced leukocyte adherence”.

Which results are given for `Nc1ccc(O)c(C(=O)O)c1` [mesalamine, 5-aminosalicylic acid]?
mesalamine concentration in the colonic lumen [5]: up to 5 mM; pain perception score after glibenclamide pretreatment [1]: did not affect the pain perception; pain perception score [1]: had no significant effect; pain perception [1]: Only Compound XXXV and Compound XXVII significantly reduced pain perception; aspirin-induced leukocyte adherence with glibenclamide pretreatment ([2]; glibenclamide 10 mg/kg i.p. 30 min prior to the compound, compound plus aspirin, FIG. 19): no effect

With `CC(=N)S` [thioacetamide] as the compound, how does the “vasorelaxant effect (% relaxation)” value [3] read?
The value was “significant vasorelaxant effects, which were concentration dependent”.
